Test results as given in paper PMC3115501 (Archives of biochemistry and biophysics, 2011).
Marks after values point to notes of the source that are not given here.

What was measured:
[1] = tested on: CYP3A4; conditions: cited from earlier work
[2] = target: T1, CYP3A4 (Homo sapiens, UniProt P08684, S18F); conditions: cited from earlier work
[3] = tested on: 3A4; conditions: 3A4 in the presence of testosterone, reduction by NADPH/P450 reductase; cited from earlier work
[4] = target: T1, CYP3A4; test: Redox potential measurements by cyclic voltammetry of purified CYP3A4; conditions: 11 μM 3A4 complexed with 200 μM TST or 100 μM compound 1

Structure (SMILES)	kcat [1] [s⁻¹]	rate of dissociation from the low-spin complex [2] [s⁻¹]	reduction rate, reported value [3] [s⁻¹]	ks (rate of electron transfer / rate constant for reduction) [4] [s⁻¹]	α (electron transfer coefficient) [4]	E^0 (formal potential) ([4]; Equation 1)	ΔEp, ½ ([4]; equation 2)	ks (rate of electron transfer / rate constant for reduction) ([4]; listed as TST) [s⁻¹]
CCC(C)n1ncn(-c2ccc(N3CCN(c4ccc(OCC5COC(Cn6cncn6)(c6ccc(Cl)cc6Cl)O5)cc4)CC3)cc2)c1=O (centres unmarked) [Itraconazole, itraconazole]	0.0045	0.002						
C[C@]12CC[C@H]3[C@@H](CCC4=CC(=O)CC[C@@]43C)[C@@H]1CC[C@@H]2O [Testosterone]			21	5.6	0.396	-189 (3) ^e mV	157 (6) mV	5.56
